The target of this assay is T1, human M4 muscarinic acetylcholine receptor (Homo sapiens, UniProt P08173).
T1 construct: expressed in transfected cells; host or cells: CHO-K1
T1 sequence (P08173 1-479): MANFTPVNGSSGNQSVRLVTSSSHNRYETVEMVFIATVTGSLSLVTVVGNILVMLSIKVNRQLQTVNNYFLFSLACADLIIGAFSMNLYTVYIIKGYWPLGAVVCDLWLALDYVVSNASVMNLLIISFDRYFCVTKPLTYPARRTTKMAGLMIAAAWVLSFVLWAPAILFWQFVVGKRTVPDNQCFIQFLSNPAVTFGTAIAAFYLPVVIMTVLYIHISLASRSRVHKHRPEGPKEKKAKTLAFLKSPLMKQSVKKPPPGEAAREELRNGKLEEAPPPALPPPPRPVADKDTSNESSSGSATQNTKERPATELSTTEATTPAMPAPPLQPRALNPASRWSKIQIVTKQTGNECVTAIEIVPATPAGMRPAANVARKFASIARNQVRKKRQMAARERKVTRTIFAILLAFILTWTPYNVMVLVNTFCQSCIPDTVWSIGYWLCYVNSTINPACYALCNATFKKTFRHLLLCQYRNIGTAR
Briefly: human FLIPR-based M4 PAM assay, CHO-K1 cells stably transfected with human M4 receptor and chimeric G-protein Gαqi5. In kind it is cell-based. The note with it: inflection point (IP) of dose response curve; acetylcholine added at 20% of maximum response; CHO-K1 human M4/Gαqi5, FLIPR Tetra. The method in brief: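 The FLIPR read recorded 4 min after compound was added across a concentration range, then 3.5 min after acetylcholine giving 20% of its maximal response, with an occasional extra EC70 addition. Cells were dye-loaded for about 1 h at 37 °C. Potency is the curve inflection point from a four-parameter logistic fit.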
For the compound `COC(=O)c1cc(C)c(N2CCC(Oc3ccc(OC)nc3)CC2)nn1` [Example 70, methyl 6-(4-((6-methoxypyridin-3-yl)oxy)piperidin-1-yl)-5-methylpyridazine-3-carboxylate], the EC50 (usually the concentration that produces a half-maximal response) was 0.129 µM.
The result for `Cc1cc(C(=O)NC2C3CC2C3)nnc1N1CCC(Oc2cccc(C#N)c2)CC1` (centres unmarked) [Example 117, N-bicyclo[1.1.1]pent-2-yl-6-[4-(3-cyanophenoxy)piperidin-1-yl]-5-methylpyridazine-3-carboxamide] reads 0.085 µM; that for `Cc1c(Cl)nc(CO)nc1N1CCC(Oc2ccc3c(c2)NCCO3)CC1` [Example 27, (4-chloro-6-(4-((3,4-dihydro-2H-benzo[b][1,4]oxazin-6-yl)oxy)piperidin-1-yl)-5-methylpyrimidin-2-yl)methanol], 0.112 µM.
The same measure for `COc1ccc(OC2CCN(c3ncnc(N4C[C@H](F)[C@@H](F)C4)c3C)CC2)cn1` [Example 230, 4-((3S,4S)-3,4-difluoropyrrolidin-1-yl)-6-(4-((6-methoxypyridin-3-yl)oxy)piperidin-1-yl)-5-methylpyrimidine]: 1.04 µM; for `Cc1c(Cl)nc(CO)nc1N1CCC(Oc2ccc3c(c2)C(=O)NC3)CC1` [Example 98, 6-((1-(6-chloro-2-(hydroxymethyl)-5-methylpyrimidin-4-yl)piperidin-4-yl)oxy)isoindolin-1-one]: 0.184 µM.
The compound `Cc1c(Cl)nc(CO)nc1N1CCC(Oc2ccc3c(cnn3C)c2)CC1` [Example 31, (4-chloro-5-methyl-6-(4-((1-methyl-1H-indazol-5-yl)oxy)piperidin-1-yl)pyrimidin-2-yl)methanol] showed a concentration for a half-maximal effect (EC50) of 0.157 µM.
The result for `COc1ccc(OC2CCN(c3nnc(C(=O)N[C@@H]4CCc5ccccc5C4)cc3C)CC2)cn1` [Example 165A, (R)-6-{4-[(6-methoxypyridin-3-yl)oxy]piperidin-1-yl}-5-methyl-N-(1,2,3,4-tetrahydronaphthalen-2-yl)pyridazine-3-carboxamide] reads 0.344 µM; that for `CCc1cc(C(=O)NCc2ccncc2)nnc1N1CCC(Oc2ccc(OC)nc2)CC1` [Example 205, 5-Ethyl-6-(4-((6-methoxypyridin-3-yl)oxy)piperidin-1-yl)-N-(pyridin-4-ylmethyl)pyridazine-3-carboxamide], 0.097 µM.
Compound `Cc1cc(C(=O)NCc2ccccc2)nnc1N1CCC(Oc2cccc(C#N)c2)CC1` [Example 194, N-benzyl-6-[4-(3-cyanophenoxy)piperidin-1-yl]-5-methylpyridazine-3-carboxamide] returned an EC50 of 0.051 µM.
On to `COC(=O)c1cnc(N2CCC(Oc3ccc(OC)nc3)CC2)c(C)c1` [Example 37, methyl 6-(4-((6-methoxypyridin-3-yl)oxy)piperidin-1-yl)-5-methylnicotinate], for which the 50% effective concentration (EC50) was determined as 0.225 µM.
The result for `CCCCc1ncnc(N2CCC(Oc3ccc(OC)nc3)CC2)c1C` [Example 256, 4-butyl-6-(4-((6-methoxypyridin-3-yl)oxy)piperidin-1-yl)-5-methylpyrimidine] reads 2.63 µM.
The result for `Cc1cc(C(=O)NC2C3CC2C3)nnc1N1CCC(Oc2ccc3c(c2)OCCO3)CC1` (centres unmarked) [Example 131, N-bicyclo[1.1.1]pent-2-yl-6-[4-(2,3-dihydro-1,4-benzodioxin-6-yloxy)piperidin-1-yl]-5-methylpyridazine-3-carboxamide] reads 0.127 µM; that for `COC(=O)c1cc(C)c(N2CC[C@H](Oc3ccc(OC)nc3)[C@H](F)C2)nn1` [Example 40, methyl 6-((3R,4S)-3-fluoro-4-((6-methoxypyridin-3-yl)oxy)piperidin-1-yl)-5-methylpyridazine-3-carboxylate], 0.29 µM.
The compound `COc1ccc(OC2CCN(c3nnc(-c4nc(C)no4)cc3C)CC2)cn1` [Example 28, 5-(6-(4-((6-methoxypyridin-3-yl)oxy)piperidin-1-yl)-5-methylpyridazin-3-yl)-3-methyl-1,2,4-oxadiazole] returned an EC50 of 0.119 µM.
The same measure for `COc1ccc(O[C@@H]2CCN(c3nnc(C(=O)N[C@H]4CCc5ncccc5C4)cc3C)C[C@@H]2F)cn1` [Example 138A, 6-((3S,4R)-3-fluoro-4-((6-methoxypyridin-3-yl)oxy)piperidin-1-yl)-5-methyl-N-((S)-5,6,7,8-tetrahydroquinolin-6-yl)pyridazine-3-carboxamide]: 0.177 µM; for `COc1ccc(OC2CCN(c3nc(S(C)(=O)=O)nc(Cl)c3C)CC2)cn1` [Example 226, 4-Chloro-6-(4-((6-methoxypyridin-3-yl)oxy)piperidin-1-yl)-5-methyl-2-(methylsulfonyl)pyrimidine]: 0.231 µM; for `Cc1c(Cl)nc(CO)nc1N1CCC(Oc2ccc3c(c2)C(=O)CO3)CC1` [Example 91, 5-((1-(6-chloro-2-(hydroxymethyl)-5-methylpyrimidin-4-yl)piperidin-4-yl)oxy)benzofuran-3(2H)-one]: 0.027 µM.
As to `Cc1nc2ccc(OC3CCN(c4nnc(C(=O)NC5C6CC5C6)cc4C)CC3)cc2o1` (centres unmarked) [Example 148, N-bicyclo[1.1.1]pent-2-yl-5-methyl-6-{4-[(2-methyl-1,3-benzoxazol-6-yl)oxy]piperidin-1-yl}pyridazine-3-carboxamide], a half-maximal effect (EC50) was put at 0.221 µM.
The result for `Cc1c(Cl)nc(CO)nc1N1CCC(Oc2ccc3c(c2)C(=O)CCO3)CC1` [Example 21, 6-((1-(6-chloro-2-(hydroxymethyl)-5-methylpyrimidin-4-yl)piperidin-4-yl)oxy)chroman-4-one] reads 0.057 µM; that for `COc1ccc(OC2CCN(c3nnc(C(=O)NCc4ccc(OC)c(C(F)(F)F)c4)cc3C)CC2)cn1` [Example 186, 6-{4-[(6-methoxypyridin-3-yl)oxy]piperidin-1-yl}-N-[4-methoxy-3-(trifluoromethyl)benzyl]-5-methylpyridazine-3-carboxamide], 1.25 µM; that for `Cc1ncc(C)c(N2CC[C@@H](Oc3cccc(C#N)c3)[C@@H](F)C2)n1` [Example 75, 3-(((3S,4R)-1-(2,5-dimethylpyrimidin-4-yl)-3-fluoropiperidin-4-yl)oxy)benzonitrile], 0.156 µM.
The compound `Cc1cc(C(=O)NC2CCc3ncccc3C2)nnc1N1CCC(OCC2CC2)CC1` (centres unmarked) [Example 133, 6-[4-(cyclopropylmethoxy)piperidin-1-yl]-5-methyl-N-(5,6,7,8-tetrahydroquinolin-6-yl)pyridazine-3-carboxamide] returned an EC50 of 0.142 µM.
Compound `Cc1nc2ccc(O[C@@H]3CCN(c4nc(CO)nc(Cl)c4C)C[C@@H]3F)cc2o1` [Example 52, (4-chloro-6-((3S,4R)-3-fluoro-4-((2-methylbenzo[d]oxazol-6-yl)oxy)piperidin-1-yl)-5-methylpyrimidin-2-yl)methanol] yielded an EC50 of 0.053 µM.
The same measure for `COc1ccc(OC2CCN(c3nc(NCCO)nc(Cl)c3C)CC2)cn1` [Example 228, 2-((4-Chloro-6-(4-((6-methoxypyridin-3-yl)oxy)piperidin-1-yl)-5-methylpyrimidin-2-yl)amino)ethan-1-ol]: 0.156 µM; for `Cc1nc(Cl)c(C)c(N2CCC(Oc3ccc4nn(C)cc4c3)CC2)n1` [Example 67, 5-((1-(6-chloro-2,5-dimethypyrimidin-4-yl)piperidin-4-yl)oxy)-2-methyl-2H-indazole]: 0.108 µM; for `COc1ccc(OC2CCN(c3nnc(C(=O)NCc4ccncc4Cl)cc3C)CC2)cn1` [Example 154, N-[(3-chloropyridin-4-yl)methyl]-6-{4-[(6-methoxypyridin-3-yl)oxy]piperidin-1-yl}-5-methylpyridazine-3-carboxamide]: 0.262 µM.
As for `COc1ccc(OC2CCN(c3nnc(C(=O)NCc4ccncc4)cc3C(F)F)CC2)cn1` [Example 265, 5-(Difluoromethyl)-6-(4-((6-methoxypyridin-3-yl)oxy)piperidin-1-yl)-N-(pyridin-4-ylmethyl)pyridazine-3-carboxamide], the midpoint of the response, the EC50, lay at 0.585 µM.
The result for `COc1ccc(OC2CCN(c3nc(C)ncc3C)CC2)cc1` [Example 69, 4-(4-(4-methoxyphenoxy)piperidin-1-yl)-2,5-dimethylpyrimidine] reads 0.126 µM; that for `COc1ccc(OC2CCN(c3nnc(C(=O)NCc4ccncc4)cc3C)CC2)cc1` [Example 101, 6-(4-(4-Methoxyphenoxy)piperidin-1-yl)-5-methyl-N-(pyridin-4-ylmethyl)pyridazine-3-carboxamide], 0.129 µM; that for `COCc1nc(Cl)c(C)c(N2CCC(Oc3ccc(OC)cc3)CC2)n1` [Example 61, 4-chloro-2-(methoxymethyl)-6-(4-(4-methoxyphenoxy)piperidin-1-yl)-5-methylpyrimidine], 0.084 µM.
The same measure for `COc1ccc(OC2CCN(c3nnc(C(=O)N[C@H]4CCc5cc(F)ccc5C4)cc3C)CC2)cn1` [Example 184A, (S)-N-(6-fluoro-1,2,3,4-tetrahydronaphthalen-2-yl)-6-{4-[(6-methoxypyridin-3-yl)oxy]piperidin-1-yl}-5-methylpyridazine-3-carboxamide]: 0.427 µM.
As for `COC(=O)c1cc(C)c(N2CCC(Oc3ccc(OC)nc3)CC2)nc1C#N` [Example 45, methyl 2-cyano-6-(4-((6-methoxypyridin-3-yl)oxy)piperidin-1-yl)-5-methylnicotinate], the EC50 was 0.493 µM.

Values taken from patent US11319298B2 (Merck Sharp & Dohme Corp., priority 2016, dated 2022).
